In patent US11980613B2, “Methods for reversing HIV latency using BAF complex modulating compounds” (priority 2018, dated 2024):

Tests used:
[1] = system: Bmi1-luciferase reporter cell line; assay: Bmi1-luciferase reporter assay (screen for inhibitors of BAF-mediated transcriptional repression); assay type: cell-based, mouse; details: for activity in the Bmi1 luciferase reporter assays: grading in words
Description: Low passage mESCs from 129 mice (20 million, p10) were electroporated with 40 μg of a linearized construct consisting of 2 kb homology upstream of the Bmi1 locus, firefly luciferase at exon 1 of Bmi1 followed by loxP neo and a 6 kb 3′ homology arm with thymidine kinase outside the homology arms. The cells were plated on 10 gelatin treated plates (60 mm) of irradiated neo resistant MEFs and selected with G418 and ganciclovir for 5 days. 384 colonies were selected, trypsinized and replated in gelatin treated 24-well plates for expansion. The cells were split and DNA was isolated for digestions with EcoRI or BamHI. We confirmed the successful homologous recombination in 7 out 384 colonies using Southern blot analysis at both the 5′ (EcoRI) and 3′ (BamHI) end (see Table S2 of Marian et al., “Small Molecule Targeting of Specific BAF (mSWI/SNF) Complexes for HIV Latency Reversal,” Cell Chem. Biol. (Dec. 20, 2018) 25: 1443-1445). We deleted the neomycin cassette using transfected Cre recombinase and confirmed the excision at all clones using a second round of Southern blot analysis at the 3′ end (BamHI).
(§1) 3. Compound Treatment: 10,000 cells in 30 μL ESC media were plated in white 384 well CellBind plates. The cells were cultured in a 37° C., 5% CO2 incubator for 24 h and 100 nL/well of 0.75 mM of positive control (Pubchem SID: 85814977) or 100 nL/well of 3.75 mM compound library (primary screen) was added via pin transfer into plates. There was no effect on assay readout at DMSO concentrations up to 0.5%. The cells were cultured in a 37° C., 5% CO2 incubator for 24 h for luciferase reporter assay and 18 h for qRT-PCR assay. 4. Luciferase assay: (PubChem AID 602393 primary, PubChem AID 651717 confirmatory.) The assay plates were removed from the incubator and equilibrates for 10 minutes to room temperature. Promega SteadyGlo® solution (10 μL/well) was added to each well of the assay plates. The assay plates were mixed at 1000 rpm for 15 seconds and then incubated for 10 minutes at room temperature. The luciferase levels were read on a Perkin Elmer Envision in Ultra Sensitive Luminescence mode. Signals remained stable up to 2 hours. 5. EqRT-PCR secondary screen (PubChem AID 743180, 743177, 743176) The qRTPCR screen was performed as published^54. In brief, 5,000 ES cells were plated on gelatin-coated 384-well tissue culture plates and cultured in a 37C, 5% CO2 incubator. 24 h later, hit compounds in 100 nL DMSO were treated at eight different doses. 18 h after compound treatment cells were washed two times with 100 μL PBS and all excess PBS was removed by centrifuging the plates upside down at 1000 rpm. The Ambion® Cells-to-Ct kit was used to generate cDNA. In brief, the cells were lysed in the plate in 10 μL lysis buffer containing DNase for 10 minutes and quenched with 1 μL lysis stop buffer. The lysate (2 μL) was added to 5 μL RT reaction buffer (2×), 2.5 μL nuclease-free water and 0.5 μL Reverse transcriptase (20×) and incubated at 37° C. for 60 minutes and 95° C. for 1 minute to generate 10 μL of cDNA. cDNA (1 μL) was used in each 5 μL qPCR reaction with Roche master mix and TaqMan probes (Applied Biosystems) for Bmi1-FAM (Mm00776122_gH), Ring1a-FAM (Mm01278940_m1/4331182), or Fgf4-FAM (Mm00438916_g1/4351372) alongside actin-VIC (4352341E) for a loading control. The qPCR was run accordingly: 95° C. for 10 minutes Then 55 cycles of: 95° C. for 10 seconds followed by 60° C. for 30 seconds. The fold increase in transcription was calculated using the ΔΔCT method^84. 6. Viability Assays (PubChem AID: 743188, 743189, 743190, 1053139, 1053140, 1053141)

[2] = system: HEK293T cells; assay: Viability assay HEK293T; assay type: cell-based; details: 72 h
Description: (§2) Cell culture: HepG2, A549 and HEK293 cells were propagated to 95% confluence in DMEM containing 10% FBS 1% Pen/Strep, 1% L-Glutamine. Cells were plated at 2000 per well in 40 μL media in white tissue culture treated 384-well plates and incubated at 5% CO2; 95% humidity, 37° C. for 24 hours. Compound (100 nL) was added to wells using a pin tool (CyBi Well) alongside 100 nL cytotoxic compounds, mitoxantrone (final concentration of 10 μM) as a positive control. The cells were incubated for 72 hours at 37° C., 95% humidity 5% CO2. Plates were removed from the incubator, equilibrated for 15 minutes to room temperature; and 20 μL 50% Promega CellTiterGlo (diluted 1:1 with PBS, pH 7.4) was added. The plates were read on Perkin-Elmer EnVision with standard luminescence settings for 0.1 sec per well.

[3] = system: BAF target genes (Bmi1, Ring1, Fgf4); assay: qRT-PCR of BAF target genes in ESCs; assay type: cell-based, mouse; details: 30 μM of compound, 18 h
Description: as §1, with “The lysate (2 μL) was added to 5 μL RT reaction buffer (2×), 2.5 μL nuclease-free water and 0.5 μL Reverse transcriptase (20×) and incubated at 37° C. for 60 minutes and 95° C. for 1 minute to generate 10 μL of cDNA. cDNA (1 μL) was used in each 5 μL qPCR reaction with Roche master mix and TaqMan probes (Applied Biosystems) for Bmi1-FAM (Mm00776122_gH), Ring1a-FAM (Mm01278940_m1/4331182), or Fgf4-FAM (Mm00438916_g1/4351372) alongside actin-VIC (4352341E) for a loading control. The qPCR was run accordingly: 95° C. for 10 minutes Then 55 cycles of: 95° C. for 10 seconds followed by 60° C. for 30 seconds.” left out, “6. Viability Assays (PubChem AID: 743188, 743189, 743190, 1053139, 1053140, 1053141)” left out

[4] = system: HepG2 cells; assay: Viability assay HepG2; assay type: cell-based; details: 72 h
Description: as §2

[5] = system: A549 cells; assay: Viability assay A549; assay type: cell-based; details: 72 h
Description: as §2

[6] = system: latent provirus in J-Lat T-cell line; assay: Cell line models of HIV-1 latency (J-Lat, GFP); assay type: cell-based; details: higher concentrations than in primary cells; 48 h
Description: [drawing 27] i. BRD-K25923209: To Macrocycle 2141-039b (0.804 g, 1.550 mmol) dissolved in MeOH (Volume: 15.50 ml) was added tin(II) chloride dihydrate (3.50 g, 15.50 mmol). […] Upon completion, the reaction mixture was concentrated and the resulting residue was dissolved in EtOAc and washed with 2 M aq. KOH (2×). The combined aqueous layers were washed with EtOAc (4×). The resulting organic layers were washed with brine, saturated aqueous NaHCO3, water, and brine, dried over MgSO4, filtered, and concentrated. […] BRD-K80443127: A screwtop vial was charged with aniline (BRD-K25923209) (43.3 mg, 0.089 mmol) and CH2Cl2 (Volume: 886 μl, Density: 1.325 g/ml). Isopropyl chloroformate (115 μl, 0.115 mmol) and DIEA (46.4 μl, 0.266 mmol) were added dropwise and reaction stirred under ambient conditions for 1 h. […] BRD-K04244835: A 2.5 mL microwave vial was charged with aniline (BRD-K25923209) (40 mg, 0.082 mmol) and EtOH (Volume: 819 μl, Density: 0.81 g/ml). Squaramide (CRE-III-001) (20.75 mg, 0.098 mmol), DIEA (42.8 μl, 0.246 mmol), and DMAP (2.000 mg, 0.016 mmol) were added in sequence and the vial was sealed. […] 9. […] 10. […] 11.

[7] = system: wild type ESCs; assay: Viability in wild type ESCs (CellTiter-Glo); assay type: cell-based, mouse; details: up to 30 μM; 72 h
Description: FIG. 2: 12-membered macrolactams are inhibitors of BAF-mediated transcription. A. The EC50 was measured for the best screen hit BRD-K98645985 after 24 h compound treatment with the Bmi1-luciferase reporter cell line. Each concentration was dosed in triplicate. B. The fold change of the transcription of three BAF target genes was calculated using qRT-PCR after 18 h BRD-K98645985 treatment (30 μM) or Brg1 knockdown compared to untreated cells. C. Viability measurements in wild type ESCs were performed after 72 h of compound or DMSO treatment using CellTiter-Glo®. D. The structure activity relationship of the eight stereoisomers of BRD-K98645985 based on initial luciferase induction from the primary screen. E. The structure activity relationship of the 3618 macrolactam library members based on initial luciferase induction from the primary screen.
Cell culture: HepG2, A549 and HEK293 cells were propagated to 95% confluence in DMEM containing 10% FBS 1% Pen/Strep, 1% L-Glutamine. Cells were plated at 2000 per well in 40 μL media in white tissue culture treated 384-well plates and incubated at 5% CO2; 95% humidity, 37° C. for 24 hours. […] The plates were read on Perkin-Elmer EnVision with standard luminescence settings for 0.1 sec per well.

[8] = system: latent HIV-1 infected T cells; assay: HIV latency reversal activity of the thiophene hit; assay type: cell-based
[9] = system: latent HIV-1 in CD4+ T cells from c-ART treated HIV-1 infected patients; assay: HIV latency reversal from patient samples (cell associated HIV Pol mRNA); assay type: cell-based, human; details: Patient 1 (one patient); single agents; 24 hours
Description: 23. HIV latency reversal from patient samples: All patients were older than 18 years, c-ART treated for at least 3 years, and their viral loads were below 50 copies/ml for more than 12 months with no blips in the past two years. CD4+ T cells from aviremic HIV+ patients were isolated as described previously^55 with minor modifications. Briefly, frozen PBMCs were cultured in RPMI medium over-night to recover. Then next day CD4+ T cells were isolated twice (enriched CD4+ T cells were subjected to a second round of CD4+ T cell enrichment) and left for 6 hrs to recover. Three million cells were treated with DMSO, 10 μM BRD-K80443127, 200 nM Prostratin, 10 μM BRD-K80443127 and 200 nM prostratin, and αCD3/CD28 magnetic beads (at cell:bead ration 1:1) as a positive control in triplicate. After 24 hours cells were lysed in TRIreagent (Sigma), total RNA was isolated with Total RNA Zol-Out (A&A Biotechnology) kit and cDNA was synthetized using random primers and Superscript II Reverse Transcriptase (Life Technologies). Detection of cellular associated pol RNA was performed as described previously (Pol: For […] (SEQ ID NO:15), Rev-[…] (SEQ ID NO: 16))^55. This study was conducted in accordance with the ethical principles of the Declaration of Helsinki. HIV-1 infected patient volunteers were informed and provided signed consent to participate in the study. The study protocol was approved by The Netherlands Medical Ethics Committee (MEC-2012-583). cDNA generated from control and 10 μM BRD-K80443127 treated samples was used to assess expression of BAF target genes biomarker genes-p21 and C-MYC.

Structure (SMILES): CCC(CC)Nc1c(Nc2ccc3c(c2)C(=O)N(C)C[C@H](OC)[C@@H](C)CN(Cc2ccc(-c4ccccn4)cc2)[C@@H](C)CO3)c(=O)c1=O [BRD-K04244835]
- activity in the Bmi1 luciferase reporter assays [1]: low/no activity

Structure (SMILES): CO[C@H]1CN(C)C(=O)c2cc(NC(=O)NC(C)C)ccc2OC[C@H](C)N(Cc2ccccc2)C[C@@H]1C [BRD-K13648511]
- activity in the Bmi1 luciferase reporter assays [1]: low/no activity

Structure (SMILES): CO[C@H]1CN(C)C(=O)c2cc(NC(=O)NC(C)C)ccc2OC[C@H](C)N(Cc2ccc(-c3cccnc3)cc2)C[C@@H]1C [BRD-K17257309]
- activity in the Bmi1 luciferase reporter assays [1]: moderate activity

Structure (SMILES): CO[C@H]1CN(C)C(=O)c2cc(N)ccc2OC[C@H](C)N(Cc2ccc(-c3ccccn3)cc2)C[C@@H]1C [BRD-K25923209]
- activity in the Bmi1 luciferase reporter assays [1]: high activity

Structure (SMILES): CO[C@H]1CN(C)C(=O)c2cc(NC(=O)NC(C)C)ccc2OC[C@H](C)N(Cc2ccc(-c3ccccn3)cc2)C[C@@H]1C [BRD-K98645985]
- toxicity to HEK293T cells [2]: no toxicity
- fold decrease in Fgf4 [3]: 3.3 fold
- fold increase in Bmi1 [3]: 5 fold
- fold increase in Ring1 [3]: 2.6 fold
- toxicity to HepG2 cells [4]: no toxicity
- toxicity to A549 cells [5]: no toxicity
- activity in the Bmi1 luciferase reporter assays [1]: high activity
- EC50 ([1]; re-evaluation of hit, 24 h compound treatment): ~2370 nM
- latency reversal (GFP) [6]: concentration dependent latency reversal
- toxicity to ESCs [7]: no toxicity

Structure (SMILES): C=CCNc1nc(NCc2cccc(OC)c2)c2sc(-c3ccccc3)cc2n1 [MLS003122856]
- HIV latency reversal activity [8]: moderate

Structure (SMILES): CC(=O)O[C@@]12C[C@@H](C)[C@@]3(O)[C@@H](C=C(CO)C[C@]4(O)C(=O)C(C)=C[C@@H]34)[C@@H]1C2(C)C [prostratin, reference compound]
- cell associated HIV mRNA (Pol), response [9]: responded
